# Laboratory results from US11154591B2, “Methods of treating alcohol abuse disorder” (THE TRUSTEES OF COLUMBIA UNIVERSITY IN THE CITY OF NEW YORK, priority 2016, dated 2021).
# Experiments:
# male C57BL/6J mice = test: Free-choice 10% ethanol vs water intake, Example 2; format: in vivo
# Protocol: To test this hypothesis, 5 groups of 5 male C57BL/6J mice (25 total) were housed for 40 days in plastic cages with 2 water bottles each: one containing water and the other 10% ethanol in water (10% ethanol). Fluids were available “free choice”, and intake from each bottle was recorded daily.
# Over the 1st week, 10% ethanol and water were consumed at a mean ratio of 0.80±0.32:1.0. Intake of 10% ethanol then increased, plateauing at a 10% ethanol:water ratio of 2.0±0.17:1.0 by Days 22-30. This was assigned a value of 100% as baseline for the subsequent studies. Starting on Day 31, 15 mice were injected with Spexin in 1×PBS 25 μg/kg in PBS i.p. daily for 3 days. Mice were administered the 14 amino acid Spexin peptide with carboxy terminal amidation: Asn-Trp-Thr-Pro-Gln-Ala-Met-Leu-Tyr-Leu-Lys-Gly-Ala-Gln-NH2 (SEQ ID NO: 4; available from Phoenix Pharmaceuticals, Catalog No. 023-81). The other 10 mice were injected with 1×PBS (vehicle) alone.
# C57BL/6J mice = test: Free-choice 10% ethanol/water drinking, Example 1; format: in vivo
# Description: Animals (C57BL/6J mice) were offered two options for drinking water, one bottle with pure water, and the other bottle containing a 10% ethanol/water mix, both of which were available “free choice” from Day 1 of the experiment. […] In this experiment, as the mice became accustomed to the 10% ethanol mix offered, they began to drink more and more of the ethanol mix, so that when their liquid consumption was plotted as a ratio of 10% ethanol/water, the ratio quickly became greater than 1 (more 10% ethanol than pure water). The mice were allowed to establish a baseline consumption pattern, and after 30 Days, 5 cages consistently consumed more of the ethanol mix than pure water.
# Beginning on Day 33, three cages were treated with Spexin at 25 micrograms/kg/day in 1×PBS; via IP injection (cages 1, 4, and 10). Mice were administered the 14 amino acid Spexin peptide with carboxy terminal amidation: Asn-Trp-Thr-Pro-Gln-Ala-Met-Leu-Tyr-Leu-Lys-Gly-Ala-Gln-NH2 (SEQ ID NO: 4; available from Phoenix Pharmaceuticals, Catalog No. 023-81). The other two cages (2 and 7) were injected with an equal volume of vehicle according to the same schedule. Animals were injected for 5 days (Days 33 through 37), then given two days off (Days 38 and 39), then injected again with Spexin for two more days (days 40 and 41). […]
# obese (DIO) mice = settings: injected into obese (DIO) mice; cited from earlier work
# rat stomach explant = settings: cited from earlier work
substance,measurement,setting,value
Asn-Trp-Thr-Pro-Gln-Ala-Met-Leu-Tyr-Leu-Lys-Gly-Ala-Gln-NH2 [Spexin],"10% ethanol:water ratio, % of baseline","male C57BL/6J mice; 25 μg/kg i.p. daily, 1st day of Spexin administration, baseline ratio 2.0:1.0 = 100%",80.7%
same,"10% ethanol:water ratio, % of baseline","male C57BL/6J mice; 25 μg/kg i.p. daily, 2nd day of Spexin administration",42.4%
same,"10% ethanol:water ratio, % of baseline","male C57BL/6J mice; 25 μg/kg i.p. daily, 3rd day of Spexin administration",42.4%
same,"10% ethanol:water ratio, % of baseline",male C57BL/6J mice; 1st day post-Spexin,100%
same,"10% ethanol:water ratio, % of baseline",male C57BL/6J mice; 2nd day post-Spexin,136%
same,ethanol intake,"male C57BL/6J mice; daily spexin injections, free choice",rapidly & significantly reduce ethanol intake
same,ratio of 10% ethanol/water consumption,"C57BL/6J mice; 25 micrograms/kg/day IP in 1xPBS, Days 33-37 and 40-41, cages 1, 4 and 10",dropped in all three cages
same,ratio of 10% ethanol/water consumption,"C57BL/6J mice; 25 micrograms/kg/day IP, cages 4 and 10",below 1
same,weight loss,obese (DIO) mice,produces weight loss
same,contractile effects,rat stomach explant,demonstrates contractile effects
